Measurements as given in ChEMBL document CHEMBL5113512, “β-Nitrostyrene derivatives as broad range potential antifungal agents targeting fungal cell wall” (2022).
In brackets after ≈: the same amount, converted by molar mass. Activity calls are given as the source filed them. The rule behind the calls is not given here.

Assays:
Candida [1] = assay: Downregulation of CCT6 gene expression in Candida cells; assay type: functional, cell-based
Candida [2] = assay: Upregulation of GAL4 gene expression in Candida cells; assay type: functional, cell-based
Candida [3] = assay: Downregulation of CPH1 gene expression in Candida cells; assay type: functional, cell-based
Candida albicans [4] = assay: Synergistic antifungal activity against Candida albicans ATCC 24433 assessed as SDS MIC incubated for 48 hrs by checker board assay; assay type: functional
Candida albicans [5] = assay: Synergistic antifungal activity against Candida albicans SN152 harboring CAS5 mutant assessed as inhibition of fungal growth incubated for 48 hrs in presence of Caspofungin by checker board assay; assay type: functional
Candida albicans [6] = assay: Synergistic antifungal activity against Candida albicans ATCC 24433 assessed as Congo red MIC incubated for 48 hrs by checker board assay; assay type: functional
Candida [7] = assay: Upregulation of CPA2 gene expression in Candida cells; assay type: functional, cell-based
Candida [8] = assay: Downregulation of PGA57 gene expression in Candida cells; assay type: functional, cell-based
[Candida] auris = Synergistic antifungal activity against Candida auris CBS10913 assessed as inhibition of fungal growth incubated for 48 hrs in presence of Congo red by checker board assay; assay type: functional; settings: Candidozyma auris
Candida albicans [9] = assay: Synergistic antifungal activity against Candida albicans SN152 harboring CAS5 mutant assessed as inhibition of fungal growth incubated for 48 hrs in presence of fluconazole by checker board assay; assay type: functional
Candida albicans [10] = assay: Synergistic antifungal activity against Candida albicans ATCC 24433 assessed as inhibition of fungal growth incubated for 48 hrs in presence of Calcoflour White by checker board assay; assay type: functional
Candida [11] = assay: Downregulation of ACF2 gene expression in Candida cells; assay type: functional, cell-based
Candida albicans [12] = assay: Synergistic antifungal activity against Candida albicans SN152 harboring CAS5 mutant assessed as Amphotericin B MIC incubated for 48 hrs by checker board assay; assay type: functional
Candida albicans [13] = assay: Synergistic antifungal activity against wild type Candida albicans SN152 assessed as fractional inhibitory concentration index incubated for 48 hrs in presence of Amphotericin B by checker board assay; assay type: functional
Candida parapsilosis [14] = assay: Synergistic antifungal activity against Candida parapsilosis ATCC 90018 assessed as Calcoflour White MIC incubated for 48 hrs by checker board assay; assay type: functional; settings: Lodderomyces parapsilosis
Candida [15] = assay: Downregulation of PRS5 gene expression in Candida cells; assay type: functional, cell-based
Candida [16] = assay: Upregulation of LSC1 gene expression in Candida cells; assay type: functional, cell-based
Candida [17] = assay: Upregulation of ARG5 gene expression in Candida cells; assay type: functional, cell-based
Candida albicans [18] = assay: Downregulation of ZCF19 gene expression in Candida albicans ATCC 24433 by qRT-PCR analysis; assay type: functional
Candida [19] = assay: Upregulation of ARG2 gene expression in Candida cells; assay type: functional, cell-based
Candida albicans [20] = assay: Synergistic antifungal activity against Candida albicans ATCC 24433 assessed as inhibition of fungal growth incubated for 48 hrs in presence of SDS by checker board assay; assay type: functional
Nakaseomyces glabratus = assay: Antifungal activity against Candida glabrata ATCC 2001 assessed as inhibition of fungal growth by broth microdilution method; assay type: functional
Candida parapsilosis [21] = assay: Synergistic antifungal activity against Candida parapsilosis ATCC 90018 assessed as fractional inhibitory concentration index incubated for 48 hrs in presence of Calcoflour White by checker board assay; assay type: functional
Candida albicans [22] = assay: Synergistic antifungal activity against Candida albicans ATCC 24433 assessed as fractional inhibitory concentration index incubated for 48 hrs in presence of Congo red by checker board assay; assay type: functional
Candidozyma auris = assay: Upregulation of CaPHO15 gene expression in Candida auris CBS10913 assessed as increase in glycerol content at sub-inhibitory concentration incubated for 2 hrs; assay type: functional
Candida albicans [23] = assay: Antifungal activity against Candida albicans ATCC 24433 overexpressing transporter protein F5 assessed as inhibition of fungal growth by broth microdilution method; assay type: functional
Candida albicans [24] = assay: Induction of ROS generation in Candida albicans ATCC 24433 at sub-inhibitory concentration incubated for 1 hr by DCFDA staining-based flow cytometric analysis; assay type: functional, organism-based
Candida albicans [25] = assay: Synergistic antifungal activity against Candida albicans SN152 harboring CAS5 mutant assessed as fractional inhibitory concentration index incubated for 48 hrs in presence of Caspofungin by checker board assay; assay type: functional
Candida albicans [26] = assay: Antifungal activity against Candida albicans ATCC 24433 overexpressing ADCaMDR1-GFP assessed as inhibition of fungal growth by broth microdilution method; assay type: functional
Candida albicans [27] = assay: Synergistic antifungal activity against Candida albicans ATCC 24433 overexpressing ADCaMDR1-GFP assessed as fractional inhibitory concentration index incubated for 48 hrs in presence of caspofungin by checker board assay; assay type: functional
Candida albicans [28] = assay: Upregulation of IFF8 gene expression in Candida albicans ATCC 24433 by qRT-PCR analysis; assay type: functional

## O=[N+]([O-])/C=C/c1ccc(O)cc1
Candida [1]
  Activity: Active
Candida [2]
  Activity: Active
Candida [3]
  Activity: Active
Candida albicans [4]
  MIC: 12.5 µg/mL
Candida albicans [5]
  MIC: 0.0019 µg/mL
Candida albicans [6]
  MIC: 3.12 µg/mL
Candida [7]
  Activity: Active
Candida [8]
  Activity: Active
[Candida] auris
  MIC: 0.125 µg/mL
Candida albicans [9]
  MIC: 0.001 µg/mL
Candida albicans [10]
  MIC: 0.0078 µg/mL
Candida [11]
  Activity: Active
Candida albicans [12]
  MIC: 0.25 µg/mL
Candida albicans [13]
  fractional inhibitory concentration index (FICI): 0.507
Candida parapsilosis [14]
  MIC: 25 µg/mL
Candida [15]
  Activity: Active
Candida [16]
  Activity: Active
Candida [17]
  Activity: Active
Candida albicans [18]
  Activity: Active
Candida [19]
  Activity: Active
Candida albicans [20]
  MIC: 1 µg/mL
Nakaseomyces glabratus
  MIC80: 8 µg/mL (≈ 48.4 µM)
Candida parapsilosis [21]
  fractional inhibitory concentration index (FICI): 0.5
Candida albicans [22]
  fractional inhibitory concentration index (FICI): 0.375
Candidozyma auris
  Activity: Active
Candida albicans [23]
  MIC80: 2 µg/mL (≈ 12.1 µM)
Candida albicans [24]
  Activity: Active
Candida albicans [25]
  fractional inhibitory concentration index (FICI): 0.5
Candida albicans [26]
  MIC80: 4 µg/mL (≈ 24.2 µM)
Candida albicans [27]
  fractional inhibitory concentration index (FICI): <0.5
Candida albicans [28]
  Activity: Active
